The IC50 is the concentration that gives 50% inhibition.

Structures are written as SMILES.

This experiment is described as follows: Inhibition of TNFalpha in mouse L929 cells exposed to compound incubated for 1 hr with mouse TNFalpha by luminescence based assay.
The compound `C[C@@H]1CN(c2ncc(-c3ccc4c(c3)N(Cc3cccnc3C#N)C(C)(C)C4=O)cn2)CCN1C(=O)CO` displayed a concentration for half-maximal inhibition (IC50) of 119 nM.
The compound `CN1CCN(Cc2ccc(-c3c[nH]c4ccncc34)c(OCCc3ccc(-c4cccc5ccncc45)cc3)c2)CC1` registered a half-inhibitory concentration (IC50) of 128 nM.
As to `C[C@@H]1CN(c2ncc(-c3ccc4c(c3)N(Cc3ccccc3OC(F)F)C(C)(C)C4=O)cn2)CCN1C(=O)CO`, it took 146 nM to reach half-maximal inhibition (IC50).
In turn, `CC1(C)C(=O)c2ccc(-c3cnc(N4CCN5C(=O)NC[C@@H]5C4)nc3)cc2N1Cc1cccnc1C#N` returned a concentration for half-maximal inhibition (IC50) of 99 nM.

Source of the values: BindingDB's records for doi:10.1021/acs.jmedchem.0c01280 (Abbvie, 2021).
